Experimental data as given in ChEMBL document CHEMBL1201862, “PubChem BioAssay data set” (2004).
Activity calls are given as the source filed them.

Columns and labels:
[1] = molecular target: DNA dC->dU-editing enzyme APOBEC-3G (Homo sapiens, UniProt Q9HC16); type: functional;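 note: Dose-response counterscreen measuring inhibition of APOBEC3G DNA deaminase activity, run while confirming APOBEC3A inhibitors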
[2] = molecular target: DNA dC->dU-editing enzyme APOBEC-3A (Homo sapiens, UniProt P31941); experiment: Dose Response confirmation of small molecule APOBEC3A DNA Deaminase Inhibitors via a fluorescence-based single-stranded DNA deaminase assay. [Related pubchem assays (depositor defined):AID493011, AID493024]; type: functional
[3] = molecular target: T1, Heat shock factor protein 1 (Mus musculus, UniProt P38532); experiment: decrease of HSF1-responsive luciferase luminescence – cell-based, NIH3T3, dose retest, confirmation (AID 2382); type: functional;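 note: NIH3T3 fibroblasts with HSF1-driven luciferase reporter stressed by proteasome inhibitor MG132; luminescence from HSF1-driven luciferase expression after 8 hours of MG132 stress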
T1 sequence (P38532 whole entry): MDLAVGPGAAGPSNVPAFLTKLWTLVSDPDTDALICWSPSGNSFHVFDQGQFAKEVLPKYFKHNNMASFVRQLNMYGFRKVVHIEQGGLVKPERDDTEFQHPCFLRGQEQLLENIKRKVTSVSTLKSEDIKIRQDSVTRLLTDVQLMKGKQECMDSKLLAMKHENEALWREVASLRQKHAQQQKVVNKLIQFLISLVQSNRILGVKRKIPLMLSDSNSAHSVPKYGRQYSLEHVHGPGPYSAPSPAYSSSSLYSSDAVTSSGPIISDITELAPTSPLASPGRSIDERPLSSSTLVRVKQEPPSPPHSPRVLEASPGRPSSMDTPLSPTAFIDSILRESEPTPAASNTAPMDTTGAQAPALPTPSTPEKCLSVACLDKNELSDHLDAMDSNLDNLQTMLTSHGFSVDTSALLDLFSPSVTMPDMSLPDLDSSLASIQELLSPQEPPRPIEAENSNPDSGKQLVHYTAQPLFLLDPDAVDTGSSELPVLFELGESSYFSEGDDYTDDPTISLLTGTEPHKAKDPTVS

[4] = molecular target: T2, Carboxy-terminal domain RNA polymerase II polypeptide A small phosphatase 1 (Homo sapiens, UniProt Q9GZU7); experiment: CTDSP1 inhibitors, concentration-response, biochemical, absorbance readout, ultra-high-throughput screen actives (AID 540297); type: functional
T2 sequence (Q9GZU7 whole entry): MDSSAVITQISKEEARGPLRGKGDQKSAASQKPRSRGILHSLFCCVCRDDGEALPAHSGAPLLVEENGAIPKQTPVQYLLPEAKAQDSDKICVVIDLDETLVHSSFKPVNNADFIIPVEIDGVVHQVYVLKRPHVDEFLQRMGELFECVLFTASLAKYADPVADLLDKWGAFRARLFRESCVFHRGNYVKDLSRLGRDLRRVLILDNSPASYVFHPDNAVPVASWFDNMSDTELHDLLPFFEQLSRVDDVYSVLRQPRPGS

[5] = test system: T-cell; experiment: loss of vesicle association with mouse CD8+ T cells – mouse 2C CD8+ T cells, flow cytometry, dose response (AID 485284); type: functional
[6] = molecular target: Troponin, cardiac muscle (Homo sapiens, UniProt P19429+P45379+P63316); experiment: Fluorescence-based biochemical high throughput dose response assay for activators of the calcium sensitivity of cardiac Regulated Thin Filaments (RTF). [Related pubchem assays (depositor defined):AID493008, AID493018, AID504382, AID504383]; type: protein-complex assay
[7] = test system: HEK293; experiment: cells; type: functional, cell-based; settings: Homo sapiens
[8] = molecular target: T3, Calpain-2 catalytic subunit (Sus scrofa, UniProt P43367); experiment: m-calpain protease blockers, concentration series – biochemical, fluorogenic peptide substrate, dose response (AID 1420); type: functional
T3 sequence (P43367 whole entry): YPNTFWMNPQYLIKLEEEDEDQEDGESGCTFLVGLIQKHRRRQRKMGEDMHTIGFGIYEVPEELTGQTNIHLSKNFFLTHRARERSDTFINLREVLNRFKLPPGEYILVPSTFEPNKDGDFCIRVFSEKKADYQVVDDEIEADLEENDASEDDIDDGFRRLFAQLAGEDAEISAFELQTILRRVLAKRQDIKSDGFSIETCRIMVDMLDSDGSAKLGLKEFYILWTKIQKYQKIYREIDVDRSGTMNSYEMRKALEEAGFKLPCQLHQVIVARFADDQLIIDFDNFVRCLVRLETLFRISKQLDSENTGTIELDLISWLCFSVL

[9] = test system: HEK293; experiment: cells; type: functional, cell-based; settings: Homo sapiens; remark: listed apart in the source
[10] = test system: HEK293; experiment: cells; type: functional, cell-based; settings: Homo sapiens; remark: listed apart in the source
[11] = test system: HEK293; experiment: inhibition of NOD1-driven NF-kB reporter – cell-based, luminescence, uHTS, primary screen (AID 1578); type: functional; settings: Homo sapiens
[12] = molecular target: Tumor necrosis factor (Homo sapiens, UniProt P01375); experiment: analog potency on TNFa NF-kB signaling – cell-based, revised, SAR follow-up (AID 2337); type: functional
[13] = molecular target: T4, Nucleotide-binding oligomerization domain-containing protein 2 (Homo sapiens, UniProt Q9HC29); experiment: PubChem AID 2334; type: functional
[14] = test system: HEK293; experiment: NOD2 signaling inhibitors in MDP-stimulated cells, cell-based, uHTS, luminescence (AID 2001); type: functional; settings: Homo sapiens
[15] = molecular target: T4, Nucleotide-binding oligomerization domain-containing protein 2; experiment: inhibition of NOD2-driven NF-kB reporter – cell-based, luminescence, uHTS, HEK293 (AID 1566); type: functional
[16] = molecular target: Nucleotide-binding oligomerization domain-containing protein 1 (Homo sapiens, UniProt Q9Y239); experiment: blockers of NOD1 pathway activity – revised, SAR follow-up (AID 2333); type: functional
[17] = test system: HEK293; experiment: cells; settings: Homo sapiens
[18] = molecular target: Luciferin 4-monooxygenase (Photinus pyralis, UniProt P08659); experiment: inhibition of purified Photinus pyralis luciferase – biochemical, luminescence, dose response (AID 1891)
[19] = Luminescence Cell-Based Dose Confirmation HTS to Identify Inhibitors of Platelet Dense Granule Release. [Related pubchem assays: 1663 (Primary HTS), 1678 (Summary of Project)]; type: functional
[20] = viability loss in HeLa cells – cytotoxicity control for MgcRacGAP inhibitor project, dose response (AID 624300); type: functional
[21] = molecular target: Nonstructural protein 1 (Influenza A virus, UniProt Q194T2); type: functional, Influenza A virus (A/California/07/2009(H1N1))
[22] = molecular target: Hexokinase-1 (Homo sapiens, UniProt P19367); experiment: HK1 enzyme activation by HKDC1 hits – biochemical, selectivity assay for HKDC1 activator project, dose response (AID 504762); type: functional
[23] = molecular target: T5, Rac GTPase-activating protein 1 (Homo sapiens, UniProt Q9H0H5); experiment: blockers of MgcRacGAP-driven Rac1 GTP hydrolysis – biochemical, ADP Hunter fluorescence, primary and confirmatory, confirmation (AID 624330); type: functional
T5 sequence (Q9H0H5 whole entry): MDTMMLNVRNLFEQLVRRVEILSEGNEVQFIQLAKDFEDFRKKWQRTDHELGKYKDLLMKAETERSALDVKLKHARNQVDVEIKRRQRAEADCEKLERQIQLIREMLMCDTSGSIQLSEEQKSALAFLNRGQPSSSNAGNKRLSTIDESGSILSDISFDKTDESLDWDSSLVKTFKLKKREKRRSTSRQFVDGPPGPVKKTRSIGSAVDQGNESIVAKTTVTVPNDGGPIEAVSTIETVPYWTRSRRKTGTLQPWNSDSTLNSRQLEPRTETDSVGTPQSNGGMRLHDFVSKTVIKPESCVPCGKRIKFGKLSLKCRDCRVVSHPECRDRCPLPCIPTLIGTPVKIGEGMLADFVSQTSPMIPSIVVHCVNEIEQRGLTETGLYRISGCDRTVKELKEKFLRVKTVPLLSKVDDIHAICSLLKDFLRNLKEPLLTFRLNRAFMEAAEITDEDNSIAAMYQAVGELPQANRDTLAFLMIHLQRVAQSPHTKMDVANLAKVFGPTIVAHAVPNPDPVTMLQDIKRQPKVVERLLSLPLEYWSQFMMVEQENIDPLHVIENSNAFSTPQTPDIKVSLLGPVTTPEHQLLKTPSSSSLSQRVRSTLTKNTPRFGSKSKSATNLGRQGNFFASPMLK

[24] = molecular target: Hexokinase HKDC1 (Homo sapiens, UniProt Q2TB90); experiment: activation of HKDC1 glucose phosphorylation – biochemical, W721R variant, dose response (AID 504730); type: functional
[25] = molecular target: T6, G-protein coupled receptor 35 (Homo sapiens, UniProt Q9HC97); experiment: SAR analysis of Antagonists of the GPR35 Receptor using an Image-Based Assay - Set 4. [Related pubchem assays (depositor defined):[…]]; type: functional
[26] = molecular target: T7, Cannabinoid receptor 1 (Homo sapiens, UniProt P21554); experiment: SAR analysis of agonists of the Cannabinoid Receptor 1 using an Image-Based Assay - Set 3. [Related pubchem assays (depositor defined):AID1961, AID1965]; type: functional
[27] = molecular target: G-protein coupled receptor 55 (Homo sapiens, UniProt Q9Y2T6); experiment: SAR analysis of selective Agonists of GPR55 using an Image-Based Assay - Set 2. [Related pubchem assays (depositor defined):AID1961, AID1965]; type: functional
[28] = molecular target: T6, G-protein coupled receptor 35; experiment: SAR analysis of Agonists of the GPR35 Receptor using an Image-Based Assay - Set 3. [Related pubchem assays (depositor defined):AID1961, AID1965]; type: functional
[29] = molecular target: T7, Cannabinoid receptor 1; experiment: SAR analysis of antagonists of the Cannabinoid Receptor 1 using an Image-Based Assay - Set 3. [Related pubchem assays (depositor defined):AID1961, AID1965]; type: functional
[30] = molecular target: T8, Cannabinoid receptor 2 (Homo sapiens, UniProt P34972); experiment: SAR analysis of agonists of the Cannabinoid Receptor 2 using an Image-Based Assay - Set 2. [Related pubchem assays (depositor defined):AID1961, AID1965]; type: functional
[31] = molecular target: T8, Cannabinoid receptor 2; experiment: SAR analysis of antagonists of the Cannabinoid Receptor 2 using an Image-Based Assay - Set 2. [Related pubchem assays (depositor defined):AID1961, AID1965]; type: functional
[32] = molecular target: T9, Runt-related transcription factor 1/Core-binding factor subunit beta (Homo sapiens, UniProt Q01196+Q13951); experiment: disruptors of Runt domain/CBFb-SMMHC interaction – biochemical, FRET, Cerulean-Runt, Venus-CBFb-SMMHC, uHTS, […] (AID 1434); type: protein assay
[33] = molecular target: T9, Runt-related transcription factor 1/Core-binding factor subunit beta; experiment: Runt domain/CBFb-SMMHC interaction disruptors – biochemical, TR-FRET (AID 1438); type: protein assay
[34] = molecular target: T10, Sphingosine 1-phosphate receptor 4 (Homo sapiens, UniProt O95977); experiment: Late-stage fluorescence dose response cell-based assay to identify agonists of the Sphingosine 1-Phosphate Receptor 4 (S1P4): purchased compounds EC50. [Related pubchem assays (depositor defined):AID1509, AID1523, AID1563, AID1686, AID1701, AID1801]; type: functional
T10 sequence (O95977 whole entry): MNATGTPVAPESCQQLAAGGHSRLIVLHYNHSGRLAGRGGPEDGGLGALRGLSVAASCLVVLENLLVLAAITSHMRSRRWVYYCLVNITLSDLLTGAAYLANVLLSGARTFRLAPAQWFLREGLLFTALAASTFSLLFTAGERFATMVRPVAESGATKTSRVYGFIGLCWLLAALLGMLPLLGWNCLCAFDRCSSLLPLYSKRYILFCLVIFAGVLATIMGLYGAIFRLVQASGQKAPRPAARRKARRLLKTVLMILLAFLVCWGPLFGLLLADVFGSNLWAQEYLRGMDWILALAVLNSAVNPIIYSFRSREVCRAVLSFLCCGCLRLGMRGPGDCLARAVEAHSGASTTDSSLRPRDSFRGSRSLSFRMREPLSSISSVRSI

C[N+]1(CC2COC(c3ccco3)O2)CCCCC1 (centres undefined)
IC50 [1]: 3.34 µM (active) | IC50 [2]: 3.15 µM (active) | EC50 [3]: > 195 µM (not active) | IC50 [4]: 3.23 µM (active)

Cc1ccc(C(=O)NCCCN2CCOCC2)c(C)c1
EC50 [5]: 22.5 µM (inactive)

O=C(NC1CCCCC1)c1cccc2c1C(=O)c1ccc(N3CCCC3)cc1S2(=O)=O
EC50 [6]: 6.65 µM (active)

CCc1cc2c3c(c1)C(C)CC(C)(C)N3C(=O)/C2=C1\SC(=O)NC1=O (centres undefined)
IC50 [7]: > 20 µM (inactive) | IC50 [8]: 14.3 µM (not active) | IC50 [9]: > 20 µM (inactive) | IC50 [10]: 16.4 µM (active) | EC50 [11]: 7.46 µM (active) | IC50 [12]: 8.16 µM (active) | IC50 [13]: 5.9 µM (active) | IC50 [14]: 10.8 µM (inactive) | EC50 [15]: 10.4 µM (active) | IC50 [16]: 5.04 µM (active) | IC50 [17]: > 20 µM (inactive)

Cc1nonc1C(=O)N/N=C/c1ccc(O)cc1O
EC50 [18]: 0.667 µM (active) | EC50 [19]: 0.136 µM (active) | CC50 [20]: 100 µM (active) | IC50 [21]: 4.75 µM (active) | EC50 [22]: > 80 µM (inactive) | IC50 [23]: 69.4 µM (active) | EC50 [24]: > 80 µM (inactive)

Cc1ccc(Cl)cc1N1CCN(C(=O)c2cc(S(=O)(=O)N(C)C)ccc2N2CCCC2)CC1
IC50 [25]: > 32 µM (inactive) | EC50 [26]: > 32 µM (inactive) | EC50 [27]: 8.84 µM (active) | EC50 [28]: > 32 µM (inactive) | IC50 [29]: > 32 µM (inactive) | EC50 [30]: > 32 µM (inactive) | IC50 [31]: > 32 µM (inactive)

Cc1ccc(S(=O)(=O)c2c(N)n(Cc3ccco3)c3nc4ccccc4nc23)cc1
IC50 [32]: > 100 µM (inactive) | IC50 [33]: > 100 µM (inactive)

Cc1nn(Cc2ccccc2)c(Cl)c1C(=O)OC(C)C#N (centres undefined)
EC50 [34]: > 50 µM (inactive)
